In this experiment the target is T1, HDAC6 enzyme (Homo sapiens, UniProt Q9UBN7).
T1 construct: transducing full length HDAC6 gene into Sf-9 insect cells; GST; purchased SignalChem; host or cells: Sf-9 insect cells
T1 sequence (Q9UBN7 1-1215): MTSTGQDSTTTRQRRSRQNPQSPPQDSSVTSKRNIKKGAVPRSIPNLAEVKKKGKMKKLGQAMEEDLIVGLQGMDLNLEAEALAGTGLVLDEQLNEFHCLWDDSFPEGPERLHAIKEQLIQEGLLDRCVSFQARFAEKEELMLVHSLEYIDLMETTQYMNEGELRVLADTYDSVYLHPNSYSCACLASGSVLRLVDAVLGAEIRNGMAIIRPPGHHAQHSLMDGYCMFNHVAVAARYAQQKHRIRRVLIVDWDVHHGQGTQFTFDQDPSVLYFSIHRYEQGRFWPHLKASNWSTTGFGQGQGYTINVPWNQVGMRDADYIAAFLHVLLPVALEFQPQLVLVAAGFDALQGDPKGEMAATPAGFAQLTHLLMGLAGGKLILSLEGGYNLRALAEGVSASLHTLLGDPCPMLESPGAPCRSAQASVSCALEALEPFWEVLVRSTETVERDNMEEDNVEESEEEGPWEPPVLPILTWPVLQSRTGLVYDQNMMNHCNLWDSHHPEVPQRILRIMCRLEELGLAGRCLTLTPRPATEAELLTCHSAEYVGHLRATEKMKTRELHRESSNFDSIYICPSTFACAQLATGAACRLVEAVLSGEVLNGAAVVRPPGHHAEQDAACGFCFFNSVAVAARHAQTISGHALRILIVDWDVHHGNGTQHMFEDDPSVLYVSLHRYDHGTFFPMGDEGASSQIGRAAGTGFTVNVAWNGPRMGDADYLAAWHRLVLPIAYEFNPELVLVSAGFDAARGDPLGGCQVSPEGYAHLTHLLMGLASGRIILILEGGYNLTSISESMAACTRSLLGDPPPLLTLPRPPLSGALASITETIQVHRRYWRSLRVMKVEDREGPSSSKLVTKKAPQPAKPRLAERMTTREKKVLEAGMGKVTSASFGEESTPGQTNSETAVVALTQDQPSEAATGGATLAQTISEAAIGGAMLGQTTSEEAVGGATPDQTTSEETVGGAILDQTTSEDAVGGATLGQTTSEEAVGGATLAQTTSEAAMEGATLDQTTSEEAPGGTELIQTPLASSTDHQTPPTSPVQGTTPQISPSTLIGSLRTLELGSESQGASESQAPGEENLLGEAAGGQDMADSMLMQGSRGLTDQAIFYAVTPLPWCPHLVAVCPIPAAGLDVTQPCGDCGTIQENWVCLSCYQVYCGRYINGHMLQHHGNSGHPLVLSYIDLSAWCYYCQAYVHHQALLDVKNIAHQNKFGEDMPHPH
The experiment can be described thus: HDAC6 enzyme inhibitory activity (HDAC-Glo I/II Assay kit). The class given is biochemical. The following applies: 10 μM; wells without enzyme = 100% inhibition; read-out: HDAC6 inhibitory rate (%) (10 μM). The method in brief: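 Inhibition is calculated as relative activity, taking luminescence in enzyme-free wells as complete inhibition. The enzyme, full-length and GST-purified after Sf-9 expression, was exposed to compound for 60 min at room temperature before a 20 min HDAC-Glo reaction.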
As for `O=C1c2cc(-c3nnc(C(F)F)o3)cnc2CN1c1ccccc1Br` [Example 240, 6-(2-bromophenyl)-3-(5-(difluoro-methyl)-1,3,4-oxadiazol-2-yl)-6,7-dihydro-5H-pyrrolo[3,4-b]-pyridin-5-one], the inhibition at 10 µM was determined as 98%. With `O=C1c2cc(-c3nnc(C(F)F)o3)ccc2CN1c1ccc(Cl)cc1Br` [Example 241, 2-(2-bromo-4-chlorophenyl)-6-(5-(difluoromethyl)-1,3,4-oxadiazol-2-yl)isoindolin-1-one], the inhibition at 10 µM was 91%. `O=C1c2cc(-c3nnc(C(F)F)o3)cc(F)c2CN1[C@@H]1CCCC[C@H]1NS(=O)(=O)C1CC1` [Example 242, N-((1R,2R)-2-(6-(5-(difluoro-methyl)-1,3,4-oxadiazol-2-yl)-4-fluoro-1-oxo-1,3-dihydro-2H-isoindol-2-yl)cyclohexyl)-cyclopropanesulfonamide]: the inhibition at 10 µM was 101%. In the case of `N#Cc1cccc(-c2ccccc2N2Cc3ncc(-c4nnc(C(F)F)o4)cc3C2=O)c1` [Example 243, 2′-(3-(5-(difluoromethyl)-1,3,4-oxadiazol-2-yl)-5-oxo-5,7-dihydro-6H-pyrrolo[3,4-b]pyridin-6-yl)biphenyl-3-carbonitrile] it was 99%; in that of `O=C1c2cc(-c3nnc(C(F)F)o3)cc(F)c2CN1[C@@H]1CCCC[C@H]1NS(=O)(=O)CC(F)(F)F` [Example 244], 101%.

`O=C1c2cc(-c3nnc(C(F)F)o3)ccc2CN1[C@@H]1CCCC[C@H]1NS(=O)(=O)CC(F)(F)F` [Example 245, N-((1R,2R)-2-(6-(5-(difluoro-methyl)-1,3,4-oxadiazol-2-yl)-1-oxo-1,3-dihydro-2H-isoindol-2-yl)cyclohexyl)-2,2,2-trifluoro-ethanesulfonamide]: the inhibition at 10 µM is 101%.

Turning to `O=C1c2cc(-c3nnc(C(F)F)o3)ccc2CN1[C@@H]1CCCC[C@H]1NS(=O)(=O)C1CC1` [Example 246, N-((1R,2R)-2-(6-(5-(difluoro-methyl)-1,3,4-oxadiazol-2-yl)-1-oxo-1,3-dihydro-2H-isoindol-2-yl)cyclohexyl)cyclopropane-sulfonamide], the inhibition at 10 µM worked out at 100%.

With `O=C1c2cc(-c3nnc(C(F)F)o3)ccc2CN1c1ccc(F)cc1Br` [Example 247, 2-(2-bromo-4-fluorophenyl)-6-(5-(difluoromethyl)-1,3,4-oxadiazol-2-yl)isoindolin-1-one], the inhibition at 10 µM was found to be 94%. In the case of `N#Cc1cccc(-c2cc(Cl)ccc2N2Cc3ccc(-c4nnc(C(F)F)o4)cc3C2=O)c1` [Example 248, 5′-chloro-2′-(6-(5-(difluoro-methyl)-1,3,4-oxadiazol-2-yl)-1-oxo-1,3-dihydro-2H-isoindol-2-yl)biphenyl-3-carbonitrile] it was 100%.

As for `N#Cc1cccc(-c2cc(F)ccc2N2Cc3ccc(-c4nnc(C(F)F)o4)cc3C2=O)c1` [Example 249, 2′-(6-(5-(difluoromethyl)-1,3,4-oxadiazol-2-yl)-1-oxo-1,3-dihydro-2H-isoindol-2-yl)-5′-fluorobiphenyl-3-carbonitrile], the inhibition at 10 µM came out at 100%.

For `Cn1cc(Br)c(N2Cc3ccc(-c4nnc(C(F)F)o4)cc3C2=O)n1` [Example 250, 2-(4-bromo-1-methyl-1H-pyrazol-3-yl)-6-(5-(difluoro-methyl)-1,3,4-oxadiazol-2-yl)isoindolin-1-one], the inhibition at 10 µM came out at 95%. The result for `O=C1c2cc(-c3nnc(C(F)F)o3)cc(F)c2CN1C[C@H]1COCCN1S(=O)(=O)c1ccccc1F` [Example 251, 6-(5-(difluoromethyl)-1,3,4-oxadiazol-2-yl)-4-fluoro-2-(((3S)-4-((2-fluorophenyl)-sulfonyl)morpholin-3-yl)-methyl)isoindolin-1-one] reads 100%. The result for `O=C1c2cc(-c3nnc(C(F)F)o3)cc(F)c2CN1C[C@H]1COCCN1S(=O)(=O)c1ccc(F)cc1` [Example 252, 6-(5-(difluoromethyl)-1,3,4-oxadiazol-2-yl)-4-fluoro-2-(((3S)-4-((4-fluorophenyl)-sulfonyl)morpholin-3-yl)-methyl)isoindolin-1-one] reads 99%; that for `O=C1c2cc(-c3nnc(C(F)F)o3)ccc2CN1c1cc(Cl)ccc1Br` [Example 253, 2-(2-bromo-5-chlorophenyl)-6-(5-(difluoromethyl)-1,3,4-oxadiazol-2-yl)isoindolin-1-one], 72%; that for `O=C(O[C@@H]1CCCC[C@H]1N1Cc2ccc(-c3nnc(C(F)F)o3)cc2C1=O)N1CCCCC1` [Example 254, (1R,2R)-2-(6-(5-(difluoro-methyl)-1,3,4-oxadiazol-2-yl)-1-oxo-1,3-dihydro-2H-isoindol-2-yl)cyclohexyl piperidine-1-carboxylate], 102%.

As to `CC(C)(C)OC(=O)N[C@H]1CCCC[C@H]1N1Cc2ccc(-c3nnc(C(F)F)o3)cc2C1=O` [Example 255, tert-butyl ((1S,2R)-2-(6-(5-(difluoromethyl)-1,3,4-oxadiazol-2-yl)-1-oxo-1,3-dihydro-2H-isoindol-2-yl)cyclohexyl)carbamate], the inhibition at 10 µM is 100%. Take `N[C@H]1CCCC[C@H]1N1Cc2ccc(-c3nnc(C(F)F)o3)cc2C1=O` [Example 256]: the inhibition at 10 µM amounted to 91%. For `O=C1c2cc(-c3nnc(C(F)F)o3)ccc2CN1[C@@H]1CCCC[C@H]1NCC(F)(F)F` [Example 257, 6-(5-(difluoromethyl)-1,3,4-oxadiazol-2-yl)-2-((1R,2R)-2-((2,2,2-trifluoroethyl)amino)-cyclohexyl)isoindolin-1-one], the inhibition at 10 µM is 101%. The result for `CC(F)(F)C(=O)N[C@H]1CCCC[C@H]1N1Cc2ccc(-c3nnc(C(F)F)o3)cc2C1=O` [Example 258, N-((1S,2R)-2-(6-(5-(difluoro-methyl)-1,3,4-oxadiazol-2-yl)-1-oxo-1,3-dihydro-2H-isoindol-2-yl)cyclohexyl)-2,2-difluoro-propanamide] reads 101%; that for `O=C1c2cc(-c3nnc(C(F)F)o3)ccc2CN1[C@@H]1CCCC[C@@H]1NC(=O)C1(C(F)(F)F)CC1` [Example 259, N-((1S,2R)-2-(6-(5-(difluoro-methyl)-1,3,4-oxadiazol-2-yl)-1-oxo-1,3-dihydro-2H-isoindol-2-yl)cyclohexyl)-1-(trifluoromethyl)cyclopro-panecarboxamide], 101%. The result for `CC(C)(C(=O)N[C@H]1CCCC[C@H]1N1Cc2ccc(-c3nnc(C(F)F)o3)cc2C1=O)C(F)(F)F` [Example 260, N-((1S,2R)-2-(6-(5-(difluoro-methyl)-1,3,4-oxadiazol-2-yl)-1-oxo-1,3-dihydro-2H-isoindol-2-yl)cyclohexyl)-3,3,3-trifluoro-2,2-dimethyl-propanamide] reads 98%; that for `O=C1c2cc(-c3nnc(C(F)F)o3)ccc2CN1[C@@H]1CCCC[C@@H]1NC(=O)C(F)(F)C(F)(F)F` [Example 261, N-((1S,2R)-2-(6-(5-(difluoro-methyl)-1,3,4-oxadiazol-2-yl)-1-oxo-1,3-dihydro-2H-isoindol-2-yl)cyclohexyl)-2,2,3,3,3-pentafluoropropan-amide], 99%; that for `COC(=O)N[C@H]1CCCC[C@H]1N1Cc2ccc(-c3nnc(C(F)F)o3)cc2C1=O` [Example 262, methyl ((1S,2R)-2-(6-(5-(difluoromethyl)-1,3,4-oxadiazol-2-yl)-1-oxo-1,3-dihydro-2H-isoindol-2-yl)cyclohexyl)carbamate], 98%.

Values taken from US10435399B2, “HDAC6 inhibitory heterocyclic compound” (TAKEDA PHARMACEUTICAL COMPANY LIMITED, priority 2017, dated 2019).
